Values quoted from earlier work in patent publication US20090197815A1, “COMBINATION OF SOMATOSTATIN-ANALOGS WITH DOPAMINE- OR GROWTH HORMONE RECEPTOR ANTAGONIST” (priority 2006, published 2009).
Where two headings read alike, the source gives them in different places.

Key:
acromegalic patients [1] = conditions: cabergoline 1-3.5 mg/week added to depot SSA at maximum registered dose, 19 patients
patients with acromegaly [2] = system: patients with acromegaly
patients with acromegaly [3] = conditions: daily subcutaneous monotherapy
acromegalic patients [4] = system: acromegalic patients

C=CCN1C[C@H](C(=O)N(CCCN(C)C)C(=O)NCC)C[C@@H]2c3cccc4[nH]cc(c34)C[C@H]21 [cabergoline]
normalization of IGF1 (acromegalic patients [1]): 42 % patients | normalized both biochemical markers (GH<2.5 μg/L and IGF1 for age) (acromegalic patients [1]): 16 % of patients | reduction of GH<2.5 μg/L (acromegalic patients [1]): 21 % of patients

C[C@@H](O)[C@@H]1NC(=O)[C@H](CCCCN)NC(=O)[C@@H](Cc2c[nH]c3ccccc23)NC(=O)[C@H](Cc2ccccc2)NC(=O)[C@@H](NC(=O)[C@H](N)Cc2ccccc2)CSSC[C@@H](C(=O)N[C@H](CO)[C@@H](C)O)NC1=O [Sandostatin®, octreotide acetate]
normalization of IGF-I (patients with acromegaly [2]): approximately 60 % of cases | patients with GH levels decreasing to <2.0 μg/L (patients with acromegaly [2]): 40 % of patients | patients with GH levels decreasing to <5.0 μg/L (patients with acromegaly [2]): 65 % of patients

pegvisomant
change of GH concentrations during therapy (patients with acromegaly [3]): increased by nearly twofold | normalization of circulating IGF-I levels (patients with acromegaly [3]): 80 to 90 % of patients | tolerability (patients with acromegaly [3]): good tolerability | IGF-I concentration normal (acromegalic patients [4]; after 18 weeks, at least 50 mg pegvisomant per week, with monthly 30 mg Sandostatin LAR or 120 mg lanreotide Autogel): 81 % of patients | IGF-I concentration normal (acromegalic patients [4]; at week 42, weekly pegvisomant with monthly 30 mg Sandostatin LAR or 120 mg lanreotide Autogel): 95 % of patients | median weekly dose needed to return IGF-I concentration to normal (acromegalic patients [4]; combined with monthly long-acting SSA, range 40-80 mg): 60 mg | patients with mild non-progressive increases in liver transaminases (acromegalic patients [4]; from week 12, independent from pegvisomant dose, 10 patients, combined with long-acting SSA): 38%
